# In patent US7727511B2, “Agents for imaging soluble a-beta” (priority 2003, dated 2010):
# “And” between values parts separate entries of the source, which are not always exact repeats. Identical values can stand only once.
# Assays:
# [1] = target: T1, beta-amyloid 1-42 oligomer (20% biotin) (Homo sapiens, UniProt P05067); assay: SPA competition binding assay against 3H-49b on soluble oligomers; conditions: 50 uM unlabeled competitor, 130 nM 3H-49b
# T1 construct: 12 μg beta-amyloid 1-42 oligomer (20% biotin); purchased Bachem H-5642; host or cells: synthetic peptide
# Method: Lyophilized Streptavidin-Ysi beads (GE Healthcare) were reconstituted to 100 mg/mL in deioniozed water, and then further diluted in deionized water to give a suspension containing 0.25 mg/10 μl water. Unlabeled 49b and other benzofuran probes were dissolved in DMSO to give a final stock concentration of 15 mM.
# For the saturation-binding assay, isotopic dilution of radiolabeled 49b with unlabeled 49b was performed. ^3H-49b was added to 500 uM of unlabeled 49b to a final concentration of 50 μCi/mL ^3H-49b. The probe solution was then serially diluted in PBS to give six solutions giving 6.6, 13.1, 26.3, 52.5, 105, or 210 uM in the final assay well. Each concentration of the probe solution was incubated with 12 μg beta-amyloid 1-42 oligomer (20% biotin) or 1-40 (20% biotin) fibrils in a total volume of 90 μl. Assays were incubated at room temp for 2 hrs before addition of 10 μL YSi-streptavidin (0.25 mg) SPA bead. Assays were set-up in triplicate in 96-well NBS plates (Costar). Assays were incubated overnight and counted the following morning. […] The specific activities of the four probes were different, however the level of activity was the same at the concentrations where the probes were tested. For this assay, 130 nM of ^3H-49b, 90 nM ^3H-cimetidine, 14 nM ^3H-caffeine, and 6 nM ^3H-AZT were tested for direct binding to 12 ug of beta-amyloid-42 oligomer (20% biotin). Assay conditions were the same as described in saturation binding assay. […]
# Data analyses were performed using Sigma Plot or GraphPad Prism® version 4. Curves were fitted using non-linear regression. KD values and IC50 values were estimated from the binding curves.
# For the competition binding assay between tritium-labeled 49b and various unlabeled benzofuran analogs, assays contained 130 nM ^3H-49b and 50 uM of each of the unlabeled benzofuran analogs. As controls, 10 uM and 50 uM of unlabeled 49b were included in the assays.
# A-beta (1-40) fibrils = target: T2, A-beta (1-40) fibrils (Homo sapiens, UniProt P05067); assay: Fluorescence titration assay, fibrils; format: binding; conditions: for Kd: read-out: KD of compound to insoluble A-beta (1-40) fibrils; for binding to A-beta (1-40) fibrils: fluorescence binding assays, stated in words
# T2 construct: Lyophilized human beta-amyloid 1-40 peptide (Catalog number H-1194, Bachem); purchased Bachem H-1194; host or cells: synthetic peptide
# Method: B. Insoluble A-beta (1-40) fibril formation: Lyophilized human beta-amyloid 1-40 peptide (Catalog number H-1194, Bachem) was solubilized with HFIP to produce a dry clear film following the process described above for beta-amyloid 1-42. The clear film of beta-amyloid 1-40 was diluted with distilled water to achieve a 6 mg/mL concentration. […] The clear solution was diluted to 1 mg/mL with PBS, pH 7.4 to obtain a final concentration of 1 mg/mL beta-amyloid 1-40, and then incubated at 37° C. on an orbital shaker at 200 RPM for 4 days. A cloudy solution was produced, and the fibril production was confirmed by measuring changes in fluorescence of Thioflavin T, as well as by atomic force microscopy and transmission electron microscopy. Fibrils were used immediately after their production was confirmed.
# (§1) Fresh solutions of 2-4 mM probe in methanol were appropriately diluted with PBS (pH 7.4) to obtain assay solutions with final concentration range of 0.1 nM to 100 μM probe in 300-400 μL PBS (pH 7.4, 2% methanol) with 10 μM A-beta (1-40) fibrils or 6.6 μM soluble A-beta (1-42). A duplicate series of assay solutions were aliquoted with the volume of soluble A-beta or fibrils replaced by PBS. The set of solutions with probe and soluble/fibrillar A-beta and the duplicate set without A-beta were prepared and the fluorescence spectra measured in triplicate. Spectral changes in the probe's fluorescence emission spectra that were unique to the presence of A-beta indicated specific binding interactions between the probe and A-beta species. This unique spectral change allowed for the determination of the probe's binding affinity. Fluorescence emission spectra for binding affinity determinations are measured with fluorometric instrumentation known to those skilled in the art, including at least a spectrofluorometer and spectrograph. Equilibrium dissociation constants were calculated using a one-site saturation model of binding.
# soluble A-beta (1-42) = target: T3, soluble A-beta (1-42) (Homo sapiens, UniProt P05067); assay: Fluorescence titration assay, soluble A-beta; format: binding; conditions: for Kd: read-out: KD of compound to soluble A-beta (1-42)
# T3 construct: 1 mg of human beta-amyloid 1-42 (H-5642, Bachem); purchased Bachem H-5642; host or cells: synthetic peptide
# Method: A. 1 mg of human beta-amyloid 1-42 (H-5642, Bachem) and 500 uL of 1,1,1,3,3,3 hexafluoro-2-propanol (HFIP) (Aldrich) were chilled in separate bottles on ice for 30 mins. Cold beta-amyloid 1-42 was solubilized with cold HFIP. The mixture was incubated for 1 hr at room temperature until it turned clear. The resulting solution was then dried to a film under vacuum. The film was dissolved again in cold HFIP and incubated another 1 hr at room temperature. The resulting solution was separated into aliquots in several microcentrifuge tubes. HFIP was removed under vacuum, and the films were stored at −20° C. until use. To prepare soluble oligomer, the film was dissolved in appropriate amount of dry DMSO (Sigma), and Ham's F12 media (Biosource) or PBS (Sigma, D8537) was added and incubated at 4° C. for 24 hours (final concentration of 200 uM or 0.9 mg/mL beta-amyloid in 2% DMSO). The tube containing the soluble oligomers was centrifuged at 13,000 rpm for 5 mins, and its supernatant was transferred to a clean tube.
# as §1
# [2] = target: T1, beta-amyloid 1-42 oligomer (20% biotin); assay: Scintillation proximity assay (SPA), direct/saturation binding of tritium labeled probe to soluble oligomers; conditions: 90 nM 3H-cimetidine, 14 nM 3H-caffeine, 6 nM 3H-AZT; 12 ug oligomer
# Method: For SPA and atomic force microscopy (AFM) experiments, preparations of soluble oligomers and fibrils contained 20% biotinylated beta-amyloid 1-42 and 1-40, respectively (H-5642, H-5914, Bachem).
# For the saturation-binding assay, isotopic dilution of radiolabeled 49b with unlabeled 49b was performed. ^3H-49b was added to 500 uM of unlabeled 49b to a final concentration of 50 μCi/mL ^3H-49b. The probe solution was then serially diluted in PBS to give six solutions giving 6.6, 13.1, 26.3, 52.5, 105, or 210 uM in the final assay well. Each concentration of the probe solution was incubated with 12 μg beta-amyloid 1-42 oligomer (20% biotin) or 1-40 (20% biotin) fibrils in a total volume of 90 μl. Assays were incubated at room temp for 2 hrs before addition of 10 μL YSi-streptavidin (0.25 mg) SPA bead. Assays were set-up in triplicate in 96-well NBS plates (Costar). Assays were incubated overnight and counted the following morning. […] Assay conditions were the same as described in saturation binding assay.
# A direct binding assay using tritium labeled 49b was performed against oligomers or fibrils by scintillation proximity assay (SPA). Beta-amyloid containing 20% biotin and tritiated 49b were incubated in solution for two hours prior to addition of the Ysi-Streptavidin beads.
# [3] = system: beta-amyloid in PDAPP mouse brain sections; assay: Histochemical staining on PDAPP transgenic mouse brain sections; format: binding; conditions: 24-month old PDAPP, carbonate extraction buffer to remove soluble material
# Method: 3-month old and 24-month old PDAPP mouse brains were obtained from Eli Lilly (Indianapolis, Ind.). Fresh frozen 30 micron sections of the brains were fixed in 10% formalin. For 49b, or Thioflavin S staining, 1 mM stock solutions of 49b and Thioflavin S were prepared in 50% ethanol. The probes were diluted to 25 μM in 50% ethanol, and then applied onto the PDAPP brain sections. The slides were incubated in a humid chamber at room temperature for 1 hr. The slides were washed three times with PBS and mounting medium (Molecular Probes) was added. The slides were incubated at least 4-6 hours before imaging. For the carbonate pre-treatment of the brain sections, formalin-fixed sections were incubated with 100 μL of carbonate buffer containing 0.025 M sodium chloride and 0.1 M sodium carbonate for 45 mins at 37° C. The slides were washed three times with PBS, then 49b or Thioflavin S were applied on the slides as described above. Microscopic examination and imaging was performed using a Leica wide-field fluorescence microscope using filter cube A for 49b and cube E4 for Thioflavin S. Co-staining of the probes with 6E10 anti-beta-amyloid antibody in the PDAPP brain sections was described in the ex vivo assay using naïve rats.
# [4] = 10 μM A-beta (1-40) fibrils, PBS pH 7.4, 2% methanol
# [5] = 6.6 μM soluble A-beta (1-42), PBS pH 7.4, 2% methanol
# T3 sequence (P05067 672-713 limits assumed): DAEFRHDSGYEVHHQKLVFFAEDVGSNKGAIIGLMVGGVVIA
# T1 sequence (P05067 672-713 limits assumed): as above
# T2 sequence (P05067 672-711 limits assumed): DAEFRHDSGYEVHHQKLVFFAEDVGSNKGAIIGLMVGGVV
# Chain of beta-amyloid in PDAPP mouse brain sections (P05067 672-711 limits assumed): as above
Molecule,inhibition at 50 µM [1] [%],further results
CC(=O)OCc1c(-c2ccc(CN3CCN(c4ccc(C#N)cc4)CC3)o2)oc2ccccc12 [Compound 1c],24,
COC(=O)[C@H](C(C)C)n1cnc(-c2ccccc2)c1-c1ccc(-c2oc3ccccc3c2CO)o1 [Compound 2c],30,
COCCN1CCN(Cc2ccc(-c3oc4ccccc4c3COC(C)=O)o2)CC1 [Compound 4c],41,
OCc1c(-c2ccc(-c3c(-c4ccccc4)ncn3CCF)o2)oc2ccccc12 [Compound 5c],48,
OCc1c(-c2ccc(-c3cncn3CCF)o2)oc2ccccc12 [Compound 11c],58,
CC(=O)OCc1c(-c2ccc(CN3CCN(c4ccc(C(F)(F)F)cc4)CC3)o2)oc2ccccc12 [Compound 13c],60,
OCc1c(-c2ccc(C(O)CCC3OCCCO3)o2)oc2ccccc12 (stereo not shown) [Compound 15c],68,
COc1cc(-c2oc3ccccc3c2CO)cc(OC)c1OC [Compound 37b],,Kd (A-beta (1-40) fibrils; [4]): > 100 µM; binding to A-beta (1-40) fibrils (A-beta (1-40) fibrils): minimal specific binding; Kd (soluble A-beta (1-42); [5]): 0.022 µM and 0.0228 µM; increase in fluorescence intensity (and quantum yield) with soluble A-beta (soluble A-beta (1-42); relative to compound in 2% methanol in PBS): approximately 5 times
Cc1cc(-c2oc3ccccc3c2C(=O)c2ccccc2)ccc1F [Compound 38b],,"KD of compound to insoluble A-beta (1-40) fibrils (A-beta (1-40) fibrils; [4]): Nonspecific binding; binding to A-beta (1-40) fibrils (A-beta (1-40) fibrils): neither binds; KD of compound to soluble A-beta (1-42) (soluble A-beta (1-42); [5]): Nonspecific binding; binding to soluble A-beta (1-42) (soluble A-beta (1-42); fluorescence binding assays, stated in words): neither binds"
Cc1cc(-c2oc3ccccc3c2C)ccc1F [Compound 39b],,Kd (A-beta (1-40) fibrils; [4]): 1.68 µM; binding to A-beta (1-40) fibrils (A-beta (1-40) fibrils): specifically binds; Kd (soluble A-beta (1-42); [5]): > 100 µM
"CN/C(=N/CCSCc1nc[nH]c1C)NC#N [cimetidine, reference compound]",,direct binding of tritium labeled probe to soluble oligomers [2]: did not bind
Thioflavin S [reference compound],,staining of carbonate pre-treated brain sections [3]: staining remained

# Second part, led by results:
inhibition at 50 µM [1] [%],Molecule,further results
38,COc1ccc(N2CCN(Cc3ccc(-c4oc5ccccc5c4COC(C)=O)o3)CC2)cc1 [Compound 3c],
51,N#Cc1ccc(C(O)c2ccc(-c3oc4ccccc4c3CO)o2)cc1 (stereo not shown) [Compound 6c],
51,CC(=O)OCc1c(-c2ccc(C=O)o2)oc2ccccc12 [Compound 7c],
51,CC(=O)OCc1c(-c2ccc(C(O)c3ccc(F)c(Cl)c3)o2)oc2ccccc12 (stereo not shown) [Compound 8c],
55,CC(=O)OCc1c(-c2ccc(CN3CCN(c4ccc(Cl)cc4)CC3)o2)oc2ccccc12 [Compound 9c],
57,CCOC(=O)c1ccc(C(O)c2ccc(-c3oc4ccccc4c3CO)o2)o1 (stereo not shown) [Compound 10c],
59,CCOC(=O)c1ccc(C(O)c2ccc(-c3oc4ccccc4c3COC(C)=O)o2)o1 (stereo not shown) [Compound 12c],
60,CC(=O)OCc1c(-c2ccc(CN3CCN(c4ccc(C)cc4)CC3)o2)oc2ccccc12 [Compound 14c],
